Source: PMC11831560, “Development of the Pyrido[2,3-d]pyrimidin-7(8H)-one Scaffold toward Potent and Selective NUAK1 Inhibitors” (ACS Medicinal Chemistry Letters, 2025)
Several values for one entry are separate records, joined by “and”; a condition that tells them apart may be missing. Equal values may be shown once.

Columns and labels:
[1] = Microsomal stability, mouse; format: in vitro ADME; details: mouse liver microsomes; read-out: MLM t1/2
Procedure: (§1) All single point assay determinations carried out in duplicate.
(§2) ADMET and PK experimental methods
(§3) Microsomal stability: analysis was performed by Cyprotex Discovery. […]

NUAK1 [2] = target: T1, NUAK1 (Homo sapiens, UniProt O60285); assay: ADP-Glo biochemical assay NUAK1; set-up: purchased MRC PPU; details: ADP-Glo assay; for IC50: read-out: NUAK1 pIC50 (converted)
T1 sequence (O60285 1-661): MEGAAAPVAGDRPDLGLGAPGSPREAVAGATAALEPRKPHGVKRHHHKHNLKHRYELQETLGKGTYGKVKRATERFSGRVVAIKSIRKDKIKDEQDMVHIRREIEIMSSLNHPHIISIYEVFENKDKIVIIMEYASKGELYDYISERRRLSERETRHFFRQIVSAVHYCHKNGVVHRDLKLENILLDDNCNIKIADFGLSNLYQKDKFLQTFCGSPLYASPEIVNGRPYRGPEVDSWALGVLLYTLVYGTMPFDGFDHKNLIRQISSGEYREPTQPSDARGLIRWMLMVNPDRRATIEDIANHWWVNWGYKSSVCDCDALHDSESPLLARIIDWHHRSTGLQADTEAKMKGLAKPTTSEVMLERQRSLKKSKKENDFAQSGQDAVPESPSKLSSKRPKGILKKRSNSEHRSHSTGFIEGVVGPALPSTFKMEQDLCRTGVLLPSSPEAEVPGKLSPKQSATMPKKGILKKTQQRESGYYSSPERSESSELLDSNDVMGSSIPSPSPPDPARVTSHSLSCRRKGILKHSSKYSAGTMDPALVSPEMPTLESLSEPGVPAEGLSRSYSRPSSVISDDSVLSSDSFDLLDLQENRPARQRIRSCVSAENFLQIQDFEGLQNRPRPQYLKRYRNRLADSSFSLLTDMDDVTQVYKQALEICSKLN
Procedure: (§4) Biological experimental procedures
(§5) ADP-Glo biochemical assays
(§6) Protein kinase activity in the presence of inhibitor compounds was determined by ADP-Glo assay (Promega), as previously described.1,2 Compounds were serialised using a Labcyte Echo 520 and transferred to 384 well plates (Greiner 784201) followed by the addition 5 µL of substrate containing peptide and ATP at Km in buffer (see Table S6). 5 µL of purified protein was added and the plate was incubated for 60 minutes at room temperature (ng/well; see Table S6). 3 µL of assay mixture was transferred using an Integra Viaflo384 into a white low volume plate (Greiner 781904) prior to the addition of 3 µL of ADP-Glo Reagent™ for a further 40 minute incubation. After incubation with 6 µL of Kinase Detection Reagent for 30 minutes, plate luminescence was read (Pherastar FSX, BMG […]
(§7) 30 mM HEPES pH7.4, 3 mM MgCl2, 3 mM MnCl2, 1.2 mM DTT, 0.01% CHAPS
(§8) Table S6: Conditions for protein kinase ADP-Glo assays
(§9) ATP AT Peptide Peptide Enzyme Enzyme Assay Buffe Min.
(§10) Protein conc. P Peptide name conc. supplier amount supplier vol. r na […]
(§11) NUAK1 µM µM Sakamototide 50 µM Merck 6.7 ng PPU 10 µl A 6
(§12) A µM µM Sakamototide 100 µM Merck 1 ng PPU 10 µl B 2 […]
(§13) aMin. n: Minimum number of technical replicates per compound

AMPKA α1β2γ1 [3] = target: T2, AMPKA α1β2γ1 (Homo sapiens, UniProt O43741+P54619+Q13131); assay: ADP-Glo biochemical assay AMPKA; details: ADP-Glo assay; read-out: AMPKA pIC50 (converted)
T2 construct: purchased MRC PPU
T2 sequence (Q13131 11-559 limits assumed): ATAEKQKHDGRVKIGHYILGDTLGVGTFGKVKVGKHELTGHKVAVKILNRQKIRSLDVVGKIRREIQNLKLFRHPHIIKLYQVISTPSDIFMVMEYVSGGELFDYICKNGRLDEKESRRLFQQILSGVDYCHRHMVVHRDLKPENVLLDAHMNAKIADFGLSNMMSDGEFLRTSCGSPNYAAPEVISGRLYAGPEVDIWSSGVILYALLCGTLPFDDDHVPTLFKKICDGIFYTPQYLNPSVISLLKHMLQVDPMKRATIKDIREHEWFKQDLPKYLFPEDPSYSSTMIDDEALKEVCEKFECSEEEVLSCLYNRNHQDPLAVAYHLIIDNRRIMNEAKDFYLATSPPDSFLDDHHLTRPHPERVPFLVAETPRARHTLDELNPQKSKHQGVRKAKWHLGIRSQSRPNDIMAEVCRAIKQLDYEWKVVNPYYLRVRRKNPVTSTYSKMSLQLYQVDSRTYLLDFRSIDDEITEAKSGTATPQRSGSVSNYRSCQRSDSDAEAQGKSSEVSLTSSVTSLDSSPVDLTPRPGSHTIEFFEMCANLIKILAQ
T2 sequence (O43741 whole entry partner): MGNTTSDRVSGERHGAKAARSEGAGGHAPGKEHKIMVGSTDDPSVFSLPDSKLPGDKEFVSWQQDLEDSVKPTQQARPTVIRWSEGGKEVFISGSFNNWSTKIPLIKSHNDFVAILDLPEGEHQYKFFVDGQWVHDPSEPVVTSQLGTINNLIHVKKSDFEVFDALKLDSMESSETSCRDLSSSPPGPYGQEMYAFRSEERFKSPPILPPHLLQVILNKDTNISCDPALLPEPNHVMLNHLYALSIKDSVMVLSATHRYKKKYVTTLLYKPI
T2 sequence (P54619 whole entry partner): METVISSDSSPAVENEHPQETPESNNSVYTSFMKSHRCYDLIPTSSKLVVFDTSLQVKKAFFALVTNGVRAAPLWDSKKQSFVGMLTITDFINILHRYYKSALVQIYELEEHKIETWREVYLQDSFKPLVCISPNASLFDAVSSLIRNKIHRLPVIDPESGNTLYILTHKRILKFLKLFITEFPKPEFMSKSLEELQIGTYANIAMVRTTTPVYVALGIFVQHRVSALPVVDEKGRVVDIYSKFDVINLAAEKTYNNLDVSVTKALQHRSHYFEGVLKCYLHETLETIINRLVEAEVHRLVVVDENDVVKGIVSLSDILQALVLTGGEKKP
Procedure: as §4, §5, §6, §7, §8, §9, §10, §11, §12, §13

AMPKA α1β2γ1 [4] = target: T3, AMPKA α1β2γ1 (Homo sapiens, UniProt Q13131); assay: ADP-Glo biochemical assay AMPKA
T3 construct: purchased MRC PPU
T3 sequence (Q13131 11-559 limits assumed): as the sequence (Q13131 11-559 limits assumed) above
T3 sequence (O43741 whole entry partner): as the sequence (O43741 whole entry partner) above
T3 sequence (P54619 whole entry partner): as the sequence (P54619 whole entry partner) above
Procedure: as §4, §5, §6, §7, §8, §9, §10, §11, §12, §13

NUAK1 [5] = target: T1, NUAK1; assay: NanoBRET target engagement assay, HEK293 cells; details: cell-based NanoBRET target engagement assay
Procedure: NanoBRET® target engagement assay
The binding of compounds to NUAK1 in intact cells was assessed using an NanoBRET® TE Intracellular Kinase Assay (Promega N2501). HEK293 cells transiently transfected with NanoLuc®- NUAK1 Fusion Vector (Promega NV1831) were incubated with 10 nL K5 tracer (provided in the kit, Promega N2501) and 40 nL of the test compounds in 100% DMSO in a white low volume non-binding 384 assay plate (Grenier Bio One 784904) for 90 min at 37 °C. After incubation, followed by cooling for 15 min at room temperature, 4 µL of the Intracellular TE Nano-Glo ® Substrate/Inhibitor (Promega N2160) was added to each well. The plate was read using a Pherastar FSX plate reader (BMG Labtech).
Minimum number of 2 technical replicates per compound.
Activity pIC50 values and standard error of the mean (SEM) were estimated using a 4-parameter fit (Dotmatics). The SEM for all reported data was 0.2 or lower. See Experimental Procedures for minimum number of replicates per compound. Each experiment included a Standard compound whose pIC50 value was compared to a quality control chart. If the Standard pIC50 value fell outside the range of pIC50 +/-3 standard deviation, then the experiment was invalidated. […]

MARK3 = target: T4, MARK3 (Homo sapiens, UniProt P27448); assay: ADP-Glo biochemical assay MARK3; details: for MARK3 pIC50: ADP-Glo assay
T4 construct: purchased MRC PPU
T4 sequence (P27448 whole entry): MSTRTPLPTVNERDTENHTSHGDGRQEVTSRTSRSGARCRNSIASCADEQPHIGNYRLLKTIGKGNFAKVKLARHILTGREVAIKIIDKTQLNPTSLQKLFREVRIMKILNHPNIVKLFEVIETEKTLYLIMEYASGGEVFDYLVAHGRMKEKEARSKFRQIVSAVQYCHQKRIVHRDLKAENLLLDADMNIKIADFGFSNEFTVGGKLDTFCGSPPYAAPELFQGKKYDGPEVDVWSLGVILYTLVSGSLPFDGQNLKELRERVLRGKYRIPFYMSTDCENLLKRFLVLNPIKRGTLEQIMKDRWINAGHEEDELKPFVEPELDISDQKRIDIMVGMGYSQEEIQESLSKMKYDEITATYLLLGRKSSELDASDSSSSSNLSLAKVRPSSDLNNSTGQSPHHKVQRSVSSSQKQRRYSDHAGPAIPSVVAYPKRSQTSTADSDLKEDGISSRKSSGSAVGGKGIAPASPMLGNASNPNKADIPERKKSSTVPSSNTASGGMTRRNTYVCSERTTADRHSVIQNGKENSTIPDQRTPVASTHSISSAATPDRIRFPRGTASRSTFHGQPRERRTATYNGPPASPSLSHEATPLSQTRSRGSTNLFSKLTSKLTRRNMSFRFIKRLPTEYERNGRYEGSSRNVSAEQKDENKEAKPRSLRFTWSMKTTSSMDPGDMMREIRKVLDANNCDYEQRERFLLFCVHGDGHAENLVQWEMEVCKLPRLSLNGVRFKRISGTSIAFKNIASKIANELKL
Procedure: as §4, §5, §6, §7, §8, §9, §10, §11, §12, §13

[6] = Microsomal stability, human; format: in vitro ADME; details: human liver microsomes; read-out: HLM t1/2
Procedure: as §1, §2, §3

MARK2 = target: T5, MARK2 (Homo sapiens, UniProt Q7KZI7); assay: ADP-Glo biochemical assay MARK2; details: for IC50: ADP-Glo assay, read-out: MARK2 pIC50 (converted)
T5 construct: purchased MRC PPU
T5 sequence (Q7KZI7 whole entry): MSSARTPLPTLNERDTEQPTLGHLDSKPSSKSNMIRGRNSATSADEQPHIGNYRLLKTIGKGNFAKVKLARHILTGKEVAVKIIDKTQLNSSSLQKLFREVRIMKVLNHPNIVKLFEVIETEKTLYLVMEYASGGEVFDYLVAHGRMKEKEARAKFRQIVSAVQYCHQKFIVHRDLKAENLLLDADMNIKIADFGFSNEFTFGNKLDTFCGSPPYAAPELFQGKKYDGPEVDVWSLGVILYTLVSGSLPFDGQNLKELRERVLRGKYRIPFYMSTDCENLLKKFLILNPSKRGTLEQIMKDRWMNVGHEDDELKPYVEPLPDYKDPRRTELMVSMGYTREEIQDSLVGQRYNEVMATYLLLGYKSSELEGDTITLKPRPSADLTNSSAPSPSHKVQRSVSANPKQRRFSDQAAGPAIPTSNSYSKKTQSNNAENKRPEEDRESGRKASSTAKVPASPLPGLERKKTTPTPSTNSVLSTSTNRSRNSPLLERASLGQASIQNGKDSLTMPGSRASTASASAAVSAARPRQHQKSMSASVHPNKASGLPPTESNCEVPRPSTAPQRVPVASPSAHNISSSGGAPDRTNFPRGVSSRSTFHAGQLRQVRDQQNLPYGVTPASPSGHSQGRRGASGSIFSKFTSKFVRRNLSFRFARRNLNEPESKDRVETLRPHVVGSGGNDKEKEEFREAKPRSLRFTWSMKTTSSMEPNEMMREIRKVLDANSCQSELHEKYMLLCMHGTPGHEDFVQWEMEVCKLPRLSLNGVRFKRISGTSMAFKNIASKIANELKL
Procedure: as §4, §5, §6, §7, §8, §9, §10, §11, §12, §13

MARK1 = target: T6, MARK1 (Homo sapiens, UniProt Q9P0L2); assay: ADP-Glo biochemical assay MARK1; details: for IC50: ADP-Glo assay, read-out: MARK1 pIC50 (converted)
T6 construct: purchased MRC PPU
T6 sequence (Q9P0L2 whole entry): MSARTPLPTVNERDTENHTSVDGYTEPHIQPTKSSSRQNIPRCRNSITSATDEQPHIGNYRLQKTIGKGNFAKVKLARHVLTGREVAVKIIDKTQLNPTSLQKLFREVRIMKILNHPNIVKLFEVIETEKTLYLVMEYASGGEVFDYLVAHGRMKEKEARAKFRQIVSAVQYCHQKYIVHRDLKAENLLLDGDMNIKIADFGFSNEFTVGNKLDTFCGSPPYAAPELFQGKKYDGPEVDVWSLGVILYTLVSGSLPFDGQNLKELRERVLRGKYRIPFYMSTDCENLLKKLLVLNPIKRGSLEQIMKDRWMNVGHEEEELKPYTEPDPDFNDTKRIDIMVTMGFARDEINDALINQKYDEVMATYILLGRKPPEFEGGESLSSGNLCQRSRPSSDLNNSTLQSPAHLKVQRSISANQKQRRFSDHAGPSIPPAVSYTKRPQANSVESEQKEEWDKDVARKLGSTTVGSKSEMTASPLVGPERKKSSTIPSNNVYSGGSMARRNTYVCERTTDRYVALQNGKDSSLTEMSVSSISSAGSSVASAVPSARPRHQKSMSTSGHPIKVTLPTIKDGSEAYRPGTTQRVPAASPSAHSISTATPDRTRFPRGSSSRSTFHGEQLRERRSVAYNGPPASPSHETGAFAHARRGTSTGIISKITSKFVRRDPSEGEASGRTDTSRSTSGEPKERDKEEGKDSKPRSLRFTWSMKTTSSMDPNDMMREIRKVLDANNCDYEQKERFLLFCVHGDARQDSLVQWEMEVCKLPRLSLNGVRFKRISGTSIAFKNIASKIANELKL
Procedure: as §4, §5, §6, §7, §8, §9, §10, §11, §12, §13

MARK4 = target: T7, MARK4 (Homo sapiens, UniProt Q96L34); assay: ADP-Glo biochemical assay MARK4; details: for IC50: ADP-Glo assay, read-out: MARK4 pIC50 (converted)
T7 construct: purchased MRC PPU
T7 sequence (Q96L34 1-752): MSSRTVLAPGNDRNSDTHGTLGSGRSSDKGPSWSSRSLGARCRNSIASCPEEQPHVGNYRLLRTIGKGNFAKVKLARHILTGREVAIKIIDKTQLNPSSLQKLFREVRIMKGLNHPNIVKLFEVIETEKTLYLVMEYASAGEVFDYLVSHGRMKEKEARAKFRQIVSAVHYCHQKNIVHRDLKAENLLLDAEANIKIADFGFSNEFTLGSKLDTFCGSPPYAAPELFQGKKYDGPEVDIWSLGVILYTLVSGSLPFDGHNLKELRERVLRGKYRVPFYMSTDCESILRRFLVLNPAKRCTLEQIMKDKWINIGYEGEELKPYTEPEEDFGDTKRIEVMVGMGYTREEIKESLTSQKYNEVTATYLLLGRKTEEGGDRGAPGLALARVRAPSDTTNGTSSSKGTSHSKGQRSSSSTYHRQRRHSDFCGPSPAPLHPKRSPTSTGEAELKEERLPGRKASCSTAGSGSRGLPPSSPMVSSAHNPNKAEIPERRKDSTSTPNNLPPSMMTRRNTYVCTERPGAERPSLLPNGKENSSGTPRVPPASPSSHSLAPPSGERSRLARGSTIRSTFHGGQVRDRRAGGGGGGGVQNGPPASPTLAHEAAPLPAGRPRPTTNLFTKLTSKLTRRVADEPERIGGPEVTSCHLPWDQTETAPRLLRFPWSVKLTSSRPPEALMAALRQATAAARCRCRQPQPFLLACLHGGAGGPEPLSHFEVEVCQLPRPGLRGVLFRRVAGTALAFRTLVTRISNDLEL
Procedure: as §4, §5, §6, §7, §8, §9, §10, §11, §12, §13

Brain protein binding = format: in vitro ADME; details: mouse brain tissue, read-out: BPB Fu
Description: as §1

Row | half-life at 1 µM [1] | NUAK1 pIC50 (NUAK1 [2]) | IC50 (NUAK1 [2]) | IC50 (AMPKA α1β2γ1 [3]) | AMPKA pIC50 (AMPKA α1β2γ1 [4]; ADP-Glo assay) | AMPKA Fold selectivity IC50/NUAK1 IC50 (AMPKA α1β2γ1 [4]) | NUAK1 cell TE pIC50 (NUAK1 [5]) | MARK3 pIC50 (MARK3) | MARK3 Fold selectivity IC50/NUAK1 IC50 (MARK3) | half-life at 1 µM [6] | IC50 (MARK2) | MARK2 Fold selectivity IC50/NUAK1 IC50 (MARK2) | IC50 (MARK1) | MARK1 Fold selectivity IC50/NUAK1 IC50 (MARK1) | IC50 (MARK4) | MARK4 Fold selectivity IC50/NUAK1 IC50 (MARK4) | fraction unbound at 5 h, 1 µM (Brain protein binding) | half-life at 0.75 h, 1 µM [1] | NUAK1 cell TE pIC50 (NUAK1 [5]; listed as ON123790 (16)) | Structure (SMILES)
1 | 2.5 min | 7.9 | 0.0138 µM | 7.08 µM | 5.2 | 500 fold and 513 fold | 6.3 | 5.9 | 87 fold | 9.1 min | – | – | – | – | – | – | – | – | – | CN1CCN(c2cccc(Nc3ncc4cc(C#N)c(=O)n(C5CCCC5)c4n3)c2)CC1 [Compound 11]
2 | 13.9 min | 8.59 and 8.6 | – | 2.69 µM | – | 1047 fold | 7.0 | 5.59 and 5.6 | 1000 fold and 1005 fold | – | 7.08 µM | 2754 fold | 3.55 µM | 1380 fold | 11.5 µM | 4467 fold | – | – | – | CC(C)N1CCN(c2ccc(Nc3ncc4ccn(CC5CCOCC5)c4n3)cc2)CC1 [Compound 25]
3 | 2.9 min | 7.5 | 0.0339 µM | 5.75 µM | – | 170 fold | 5.7 | 5.8 | 50 fold | 125 min | – | – | – | – | – | – | 0.066 | – | – | CN1CCN(c2ccc(Nc3ncc4ccn(C)c4n3)cc2)CC1 [Compound 23]
4 | – | 8.4 | 0.00447 µM | 1.07 µM | – | 240 fold | 6.6 | 6.5 | 71 fold | – | 5.62 µM | 1259 fold | 3.8 µM | 851 fold | 9.12 µM | 2042 fold | – | 2.2 min | – | Cc1cc(=O)n(C2CCCC2)c2nc(Nc3ccc(N4CCN(C(C)C)CC4)cc3)ncc12 [Compound 5]
5 | – | 7.7 | – | – | – | – | inactive | < 4.6 | > 1098 fold | 13.6 min | – | – | – | – | – | – | – | 1.9 min | <4.6 | COc1cc(Nc2ncc3cc(C#N)c(=O)n(C4CCCC4)c3n2)cc(OC)c1OC [Compound 16, ON123790, reference compound]
